{
  "source": "patent US20110130355A1",
  "about": "“USE OF SOPHORICOSIDE IN THE MANUFACTURE OF MEDICAMENTS” (priority 2008, published 2011)",
  "key": {"ER-α": {"system": "ER-α", "experiment": "Immunohistochemical staining of the estrogen receptor of articular chondrocytes, percentage of positive cells", "assay_type": "in vivo, SD rats", "conditions": "OVX rats, 11 weeks; for ER-α positive cells in the articular cartilage, micrograph in words: FIG. 7; for positive ratio for ER-α expression in the articular chondrocytes, Total: whole knee joint", "method": "2) Elimination of endogenous peroxidases: The sections were treated with 3% H2O2-methanol for 10 minutes and washed by PBS for 5 minutes×3;\n3) Blocking of Antigen: The sections were treated with 0.3% bovine serum albumin (BSA) for 30 minutes;\nThe sections were incubated at 4° C. overnight and then washed by PBS for 5 minutes×3;\n5) Secondary antibody: After the addition of the biotinylated secondary antibody (1:200) the sections were incubated at 37° C. for 30 minutes and then washed by PBS for 5 minutes×3;\n6) Addition of SABC (Streptavidin Biotin Complex): After the addition of SABC (1:300) the sections were incubated at 37° C. for 30 minutes and then washed by PBS for 5 minutes×3;\n7) Visualization: 75 μl of 3,3′-diaminobenzidine (DAB) was added per section. After incubation for 3-6 minutes, the sections were observed by microscopy;\nThe average of the percentages for the four regions was regarded as the total positive cell percentage for the indicated knee joint, and the average of the percentages obtained from two persons was regarded as the final experimental result.\nThe positive cell percentage=number of the positive chondrocytes in the field/total number of the chondrocytes in the field×100%."}, "[1]": {"system": "carrageenan-induced edema", "conditions": "in vivo; cited from earlier work"}, "interleukin-5": {"system": "interleukin-5", "conditions": "cited from earlier work"}, "[2]": {"system": "articular cartilage of the knee joint", "experiment": "Articular surface lesions of the knee joint (toluidine blue staining, image analysis)", "assay_type": "in vivo, SD rats", "conditions": "OVX rats, 11 weeks; for lesion percentage for the articular surface, total: whole knee joint", "method": "1. The Pathological Sections of the Knee Joints of Rats\n1) The knee joints of rats were fixed in 4% PFA for 48 hours;\n2) The samples were decalcified in 15% ethylenediamine tetraacetic acid (EDTA) for 15 days;\nThe coronal sections were sectioned by a paraffin microtome (Leica, Model: RM2235) at thickness of 5 μm with the medial collateral ligament being used as a marker. The sections were transferred into warm water at 30° C., and plated on slides pre-treated with polylysine. The slides were transferred to an incubator at 65° C. for 3 hours and stored at ambient condition until use.\n2) Staining: The sections were stained in 1% Ammonia Toluene blue for 5 minutes and rinsed with water for 10 minutes;\nThe lesion lengths in the four weight-bearing articular cartilage surface lesion regions of medial and lateral femoral condyles and medial and lateral tibial plateaus were measured with Axioplan 2 microscopy imaging analysis system (Axioplan 2 multifunctional automatic fluorescent microscope, KS400 imaging analysis system Ver. 3.0, AxioCam digital camera at a resolution of 3900×3090) by two independent persons skilled in the imaging art (FIGS. 3A and 3B). The results were averaged. The lesion percentage for each of the four articular surfaces was calculated. Finally the total lesion percentage for the knee joint was calculated as:\nThe lesion percentage for each part of the articular surface=lesion length/total length of the weight-bearing articular surface×100%.\nThe lesion percentage for articular surface of the knee joint=total lesion length/total length of the articular surface×100%."}, "uterus": {"system": "uterus", "experiment": "Wet weights of uteri of ovariectomized rats", "assay_type": "in vivo, SD rats", "conditions": "OVX rats, 11 weeks", "method": "OVX group and the intervention groups: The rats were anesthetized by intraperitoneal injection of 1% pentobarbital sodium at 5 ml/kg. After the onset of anesthesia, the rats were positioned face-down and dehaired at the third lumbar vertebra below the costal arch. The skin was sanitized by benzalkonium bromide and incised by about 1 cm. The subcutaneous tissue and the fascia were incised, and the muscle was bluntly separated. The peritoneum was carefully cut open. White fat was lifted carefully by using tissue forceps inserted to the abdominal cavity through the incision. The fat was gently turned over to expose the quincuncial ovary, which was then ligated by sterile 1 silk thread. The ovary was separated by cutting the oviduct by ophthalmic scissors. After hemostasis by compression, the fat was returned into the abdominal cavity. Subsequently, an incision was made on the opposite side and the same procedures were carried out to excise the ovary on the opposite side. The peritoneum, the fascia, the subcutaneous tissue, and the skin were sutured one by one. The incisions were sanitized.\nThe vehicle was 1% sodium carboxymethylcellulose (CMC-Na). The sham group and OVX group were administered the vehicle by gavage.\nIntervention groups were administered the following formulations of active agents dissolved in the vehicle: […]\nThe rats were sacrificed by cervical dislocation after 11 weeks. Uteri were removed, weighted, and fixed in 4% paraformaldehyde (PFA). The whole right knee joints were removed and fixed in 4% PFA.\nThe rats were weighted, and then sacrificed. The uteri were removed from the rats and determined for wet weights.\nStatistical analysis of variance was performed. The variance of the wet weights internal to the SHAM group was high, possibly attributing to different stages of menstrual cycle. In all groups, the body weights before the treatment were not statistically different from those after the treatment. The wet weights of uteri obtained from the ovariectomized groups were statistically different from those obtained from the SHAM group (p<0.01), indicating a successful ovariectomy."}},
  "note": "Marks after values point to notes of the source that are not given here.",
  "data": [
    {"smiles": "O=c1c(-c2ccc(O[C@@H]3O[C@H](CO)[C@@H](O)[C@H](O)[C@H]3O)cc2)coc2cc(O)cc(O)c12", "note": "[HDA, 3-[4-(β-D-glucopyranosyl)-benzyl]5,7-dihydro-4H-1-benzopyran-4-one (4′,5,7-trihydroxylisoflavone-4′-D-glucoside)]", "values": [
      {"measurement": "ER-α positive cells in the articular cartilage, micrograph in words", "setting": "ER-α; sophoricoside 10 mg/kg/day", "result": "ER-α positive cells within the superficial layer of articular cartilage were much less"},
      {"measurement": "ER-α positive cells in the articular cartilage, micrograph in words", "setting": "ER-α; sophoricoside 20 mg/kg/day", "result": "ER-α positive cells within the superficial layer of articular cartilage were much less"},
      {"measurement": "ER-α positive cells in the articular cartilage, micrograph in words", "setting": "ER-α; sophoricoside 80 mg/kg/day", "result": "more than the OVX group and similar to normal articular cartilage"},
      {"measurement": "positive ratio for ER-α expression in the articular chondrocytes, Total", "setting": "ER-α; sophoricoside 10 mg/kg/day", "result": "49.520 ± 1.815^□□ %"},
      {"measurement": "positive ratio for ER-α expression in the articular chondrocytes, Total", "setting": "ER-α; sophoricoside 20 mg/kg/day", "result": "58.624 ± 1.707**^□□ %"},
      {"measurement": "positive ratio for ER-α expression in the articular chondrocytes, Total", "setting": "ER-α; sophoricoside 40 mg/kg/day", "result": "65.074 ± 1.306**^□□ %"},
      {"measurement": "positive ratio for ER-α expression in the articular chondrocytes, Total", "setting": "ER-α; sophoricoside 80 mg/kg/day", "result": "77.730 ± 1.125**^□□ %"},
      {"measurement": "carrageenan-induced edema", "setting": "[1]", "result": "inhibit"},
      {"measurement": "inhibition of interleukin-5", "setting": "interleukin-5", "result": "inhibitor of interleukin-5"},
      {"measurement": "articular cartilage degeneration resulted from ovariectomy, in words", "setting": "[2]; sophoricoside 10 mg/kg/day", "result": "ameliorated by the interventions other than HDA10 and HDA20"},
      {"measurement": "articular cartilage degeneration resulted from ovariectomy, in words", "setting": "[2]; sophoricoside 20 mg/kg/day", "result": "ameliorated by the interventions other than HDA10 and HDA20"},
      {"measurement": "articular cartilage degeneration resulted from ovariectomy, in words", "setting": "[2]; sophoricoside 40 mg/kg/day", "result": "effective but not able to completely reverse the degeneration"},
      {"measurement": "articular cartilage degeneration resulted from ovariectomy, in words", "setting": "[2]; sophoricoside 80 mg/kg/day", "result": "significantly more effective than OVX"},
      {"measurement": "lesion percentage for the articular surface, total", "setting": "[2]; sophoricoside 10 mg/kg/day", "result": "7.785 ± 0.547^□□ %"},
      {"measurement": "lesion percentage for the articular surface, total", "setting": "[2]; sophoricoside 20 mg/kg/day", "result": "6.622 ± 0.366^□□ %"},
      {"measurement": "lesion percentage for the articular surface, total", "setting": "[2]; sophoricoside 40 mg/kg/day", "result": "5.617 ± 0.264*^□□ %"},
      {"measurement": "lesion percentage for the articular surface, total", "setting": "[2]; sophoricoside 80 mg/kg/day", "result": "4.808 ± 0.603", "unit": "%"},
      {"measurement": "Wet weight of uterus", "setting": "uterus; sophoricoside 10 mg/kg/day", "result": "0.143 ± 0.008", "unit": "g"},
      {"measurement": "Wet weight of uterus", "setting": "uterus; sophoricoside 20 mg/kg/day", "result": "0.129 ± 0.008", "unit": "g"},
      {"measurement": "Wet weight of uterus", "setting": "uterus; sophoricoside 40 mg/kg/day", "result": "0.162 ± 0.013", "unit": "g"},
      {"measurement": "Wet weight of uterus", "setting": "uterus; sophoricoside 80 mg/kg/day", "result": "0.166 ± 0.017", "unit": "g"}
    ]}
  ]
}
